Test results: ChEMBL document CHEMBL3880421, “Indazole compounds and pharmaceutical compositions for inhibiting protein kinases, and methods for their use” (2003)

Legend:
Format in all cases: functional
Settings in all cases: Homo sapiens
[1] = Antiproliferative activity against VEGF-stimulated HUVEC cells assessed as reduction in cell viability at 10 nM preincubated for 1 hr followed by addition of VEGF measured after 72 hrs by MTT assay
[2] = Antiproliferative activity against VEGF-stimulated HUVEC cells assessed as reduction in cell viability at 0.5 nM preincubated for 1 hr followed by addition of VEGF measured after 72 hrs by MTT assay
[3] = Antiproliferative activity against VEGF-stimulated HUVEC cells assessed as reduction in cell viability at 2 nM preincubated for 1 hr followed by addition of VEGF measured after 72 hrs by MTT assay

Row | Compound | inhibition at 0.01 µM [1] | inhibition at 0.0005 µM [2] | inhibition at 0.002 µM [3]
1 | O=C(Nc1cccc(Nc2ccc3c(/C=C/c4ccccc4)n[nH]c3c2)c1)C1=C[C@@H](O)[C@@H](O)[C@H](O)C1 | 6% |  | 
2 | CCNc1ccccc1C(=O)Nc1cccc(Nc2ccc3c(/C=C/c4ccccc4)n[nH]c3c2)c1 | 71% |  | 
3 | O=C(c1cccc(NC(=O)C(O)c2ccccc2)c1)c1ccc2c(/C=C/c3ccccc3)n[nH]c2c1 (stereo not drawn) | 3% |  | 
4 | CC(C)CC(O)C(=O)Nc1cccc(Oc2ccc3c(/C=C/c4ccccc4)n[nH]c3c2)c1 (stereo not drawn) | 69% |  | 
5 | Cc1cc(C(=O)Nc2cccc(C(=O)c3ccc4c(/C=C/c5ccccc5)n[nH]c4c3)c2)no1 | 50% |  | 
6 | O=C(Nc1cccc(Nc2ccc3c(/C=C/c4ccccc4)n[nH]c3c2)c1)c1cc(=O)cco1 | 17% |  | 
7 | CC(C)c1ccccc1C(=O)Nc1cccc(Nc2ccc3c(/C=C/c4ccccc4)n[nH]c3c2)c1 | 79% |  | 
8 | CC(C)CC(=O)C(=O)Nc1cccc(Nc2ccc3c(/C=C/c4ccccc4)n[nH]c3c2)c1 | 11% |  | 
9 | O=C(Nc1cccc(Oc2ccc3c(/C=C/c4ccccc4)n[nH]c3c2)c1)C1CC2C=CCC(C2)C1 (stereo not drawn) | 17% |  | 
10 | CCCCCCCNC(=O)c1ccccc1Nc1ccc2c(/C=C/c3ccccn3)n[nH]c2c1 |  | 9% | 34%
11 | O=C(NC1CCS(=O)(=O)C1)c1ccccc1Nc1ccc2c(/C=C/c3ccccn3)n[nH]c2c1 (stereo not drawn) |  | 27% | 2%
12 | O=C(NCCN1CCOCC1)c1ccccc1Nc1ccc2c(/C=C/c3ccccn3)n[nH]c2c1 |  | 28% | 22%
13 | CC1CC(NC(=O)c2ccccc2Nc2ccc3c(/C=C/c4ccccn4)n[nH]c3c2)CC(C)(C)C1 (stereo not drawn) |  | 25% | 31%
14 | Cc1cnc(NC(=O)c2ccccc2Nc2ccc3c(/C=C/c4ccccn4)n[nH]c3c2)s1 |  | 20% | 92%
15 | O=C(NNC(=O)c1ccccc1Nc1ccc2c(/C=C/c3ccccn3)n[nH]c2c1)c1ccc[nH]1 |  | 60% | 99%
16 | Cc1ccc(CNC(=O)c2ccccc2Nc2ccc3c(/C=C/c4ccccn4)n[nH]c3c2)cc1 |  | 20% | 92%
17 | Nc1ccc(CNC(=O)c2ccccc2Nc2ccc3c(/C=C/c4ccccn4)n[nH]c3c2)cc1 |  | 45% | 88%
18 | CN(NC(=O)c1ccccc1Nc1ccc2c(/C=C/c3ccccn3)n[nH]c2c1)c1ccccc1 |  | 16% | 37%
19 | CCCNC(=O)c1ccccc1Nc1ccc2c(/C=C/c3ccccn3)n[nH]c2c1 |  | 33% | 64%
20 | CS(=O)(=O)NNC(=O)c1ccccc1Nc1ccc2c(/C=C/c3ccccn3)n[nH]c2c1 |  | 9% | 1%
21 | CCCCCCC(C)NC(=O)c1ccccc1Nc1ccc2c(/C=C/c3ccccn3)n[nH]c2c1 (stereo not drawn) |  | 35% | 63%
22 | CC(C)CCCC(C)NC(=O)c1ccccc1Nc1ccc2c(/C=C/c3ccccn3)n[nH]c2c1 (stereo not drawn) |  | 20% | 32%
23 | CCOCCCNC(=O)c1ccccc1Nc1ccc2c(/C=C/c3ccccn3)n[nH]c2c1 |  | 44% | 97%
24 | Cc1ccccc1CNC(=O)c1ccccc1Nc1ccc2c(/C=C/c3ccccn3)n[nH]c2c1 |  | 24% | 99%
25 | CC(CO)NC(=O)c1ccccc1Nc1ccc2c(/C=C/c3ccccn3)n[nH]c2c1 (stereo not drawn) |  | 19% | 28%
26 | N#CC1CCC(CNC(=O)c2ccccc2Nc2ccc3c(/C=C/c4ccccn4)n[nH]c3c2)CC1 (stereo not drawn) |  | 36% | 66%

Row | Compound | inhibition at 0.01 µM [1] | inhibition at 0.0005 µM [2] | inhibition at 0.002 µM [3]
27 | O=C(O)CCNC(=O)c1ccccc1Nc1ccc2c(/C=C/c3ccccn3)n[nH]c2c1 |  | 4% | 20%
28 | O=C(NCCN1CCCC1)c1ccccc1Nc1ccc2c(/C=C/c3ccccn3)n[nH]c2c1 |  | 40% | 31%
29 | N#CCCNNC(=O)c1ccccc1Nc1ccc2c(/C=C/c3ccccn3)n[nH]c2c1 |  | 44% | 5%
30 | COCCCNC(=O)c1ccccc1Nc1ccc2c(/C=C/c3ccccn3)n[nH]c2c1 |  | 26% | 31%
31 | CN(NC(=O)c1ccccc1Nc1ccc2c(/C=C/c3ccccn3)n[nH]c2c1)C(N)=S |  | 12% | 29%
32 | O=C(NCCNc1ccccc1)c1ccccc1Nc1ccc2c(/C=C/c3ccccn3)n[nH]c2c1 |  | 19% | 89%
33 | O=C(Nc1nc[nH]n1)c1ccccc1Nc1ccc2c(/C=C/c3ccccn3)n[nH]c2c1 |  | 19% | 22%
34 | CCCCC(CC)NC(=O)c1ccccc1Nc1ccc2c(/C=C/c3ccccn3)n[nH]c2c1 (stereo not drawn) |  | 31% | 30%
35 | CN1CCN(CCCNC(=O)c2ccccc2Nc2ccc3c(/C=C/c4ccccn4)n[nH]c3c2)CC1 |  | 0% | 4%
36 | CC(C)[C@H](CO)NC(=O)c1ccccc1Nc1ccc2c(/C=C/c3ccccn3)n[nH]c2c1 |  | 47% | -4%
37 | CC(C)NC(=O)c1ccccc1Nc1ccc2c(/C=C/c3ccccn3)n[nH]c2c1 |  | 22% | 43%
38 | CCCC(C)NC(=O)c1ccccc1Nc1ccc2c(/C=C/c3ccccn3)n[nH]c2c1 (stereo not drawn) |  | 29% | 92%
39 | O=C(NN1CCOCC1)c1ccccc1Nc1ccc2c(/C=C/c3ccccn3)n[nH]c2c1 |  | 1% | 53%
40 | CCC(C)NC(=O)c1ccccc1Nc1ccc2c(/C=C/c3ccccn3)n[nH]c2c1 (stereo not drawn) |  | 29% | 58%
41 | O=C(CNC(=O)c1ccccc1Nc1ccc2c(/C=C/c3ccccn3)n[nH]c2c1)NO |  | 5% | 9%
42 | CN(CCCNC(=O)c1ccccc1Nc1ccc2c(/C=C/c3ccccn3)n[nH]c2c1)c1ccccc1 |  | 18% | 25%
43 | CC(C)OCCCNC(=O)c1ccccc1Nc1ccc2c(/C=C/c3ccccn3)n[nH]c2c1 |  | 34% | 99%
44 | O=C(NCCS(=O)(=O)O)c1ccccc1Nc1ccc2c(/C=C/c3ccccn3)n[nH]c2c1 |  | 16% | 21%
45 | O=C(NCCC1=CCCCC1)c1ccccc1Nc1ccc2c(/C=C/c3ccccn3)n[nH]c2c1 |  | 24% | 86%
46 | O=C(NOCC(=O)N1CCOCC1)c1ccccc1Nc1ccc2c(/C=C/c3ccccn3)n[nH]c2c1 |  | 15% | -1%
47 | Cn1cccc1C(=O)NNC(=O)c1ccccc1Nc1ccc2c(/C=C/c3ccccn3)n[nH]c2c1 |  | 68% | 49%
48 | O=C(NC1CCSC1=O)c1ccccc1Nc1ccc2c(/C=C/c3ccccn3)n[nH]c2c1 (stereo not drawn) |  | 25% | 40%
49 | CCN1CC(NC(=O)c2ccccc2Nc2ccc3c(/C=C/c4ccccn4)n[nH]c3c2)CN1CC |  | 2% | -19%
50 | CN(C)c1ccc(CNC(=O)c2ccccc2Nc2ccc3c(/C=C/c4ccccn4)n[nH]c3c2)cc1 |  | 32% | 24%
51 | O=C(NC1OCCO1)c1ccccc1Nc1ccc2c(/C=C/c3ccccn3)n[nH]c2c1 |  | 35% | 63%
